According to PubChem BioAssay (NCI):
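Growth conditions: 96-well plates. Treatment: test compound, 48 hours, 5 concentrations. Analysis: linear interpolation between bracketing concentrations; unreached endpoints set to highest concentration. The concentration for 50% growth inhibition is given as GI50. TGI denotes the concentration required for complete inhibition of growth.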

Assays:
Assay in all cases: NCI-60 cell line screen, 48 h
HOP-62 NSCLC = tested on: HOP-62 NSCLC
U251 CNS = tested on: U251 CNS
ACHN renal = tested on: ACHN renal
UACC-257 melanoma = tested on: UACC-257 melanoma
OVCAR-8 ovarian = tested on: OVCAR-8 ovarian
MALME-3M melanoma = tested on: MALME-3M melanoma
SK-MEL-2 melanoma = tested on: SK-MEL-2 melanoma
NCI-H226 lung = tested on: NCI-H226 lung
EKVX NSCLC = tested on: EKVX NSCLC
HT29 colon = tested on: HT29 colon
UO-31 renal = tested on: UO-31 renal
HCC-2998 colon = tested on: HCC-2998 colon
OVCAR-5 ovarian = tested on: OVCAR-5 ovarian
M14 melanoma = tested on: M14 melanoma
PC-3 prostate = tested on: PC-3 prostate
MCF7 breast = tested on: MCF7 breast
NCI-H460 lung = tested on: NCI-H460 lung
MDA-MB-435 = tested on: MDA-MB-435
SW-620 colon = tested on: SW-620 colon
T-47D breast = tested on: T-47D breast
NCI-H522 lung = tested on: NCI-H522 lung
DU-145 prostate = tested on: DU-145 prostate
TK-10 renal = tested on: TK-10 renal
HCT-116 colon = tested on: HCT-116 colon
UACC-62 melanoma = tested on: UACC-62 melanoma
SN12C renal = tested on: SN12C renal
RPMI-8226 leukemia = tested on: RPMI-8226 leukemia
NCI-H23 lung = tested on: NCI-H23 lung
CAKI-1 renal = tested on: CAKI-1 renal
MDA-MB-468 breast = tested on: MDA-MB-468 breast
IGROV1 ovarian = tested on: IGROV1 ovarian
MOLT-4 leukemia = tested on: MOLT-4 leukemia
KM12 colon = tested on: KM12 colon
SF-539 CNS = tested on: SF-539 CNS
HL-60(TB) leukemia = tested on: HL-60(TB) leukemia
SK-MEL-28 melanoma = tested on: SK-MEL-28 melanoma
RXF 393 renal = tested on: RXF 393 renal
SF-295 CNS = tested on: SF-295 CNS
SR leukemia = tested on: SR leukemia
BT-549 breast = tested on: BT-549 breast
HOP-92 NSCLC = tested on: HOP-92 NSCLC
786-0 renal = tested on: 786-0 renal
K-562 leukemia = tested on: K-562 leukemia
SF-268 CNS = tested on: SF-268 CNS
MDA-MB-231 breast = tested on: MDA-MB-231 breast
SNB-19 CNS = tested on: SNB-19 CNS
SNB-75 CNS = tested on: SNB-75 CNS
OVCAR-3 ovarian = tested on: OVCAR-3 ovarian
OVCAR-4 ovarian = tested on: OVCAR-4 ovarian
A498 renal = tested on: A498 renal
CCRF-CEM leukemia = tested on: CCRF-CEM leukemia
COLO 205 colon = tested on: COLO 205 colon
NCI/ADR-RES ovarian = tested on: NCI/ADR-RES ovarian
LOX IMVI melanoma = tested on: LOX IMVI melanoma
SK-OV-3 ovarian = tested on: SK-OV-3 ovarian
SK-MEL-5 melanoma = tested on: SK-MEL-5 melanoma
A549 NSCLC = tested on: A549 NSCLC
HS 578T breast = tested on: HS 578T breast
HCT-15 colon = tested on: HCT-15 colon

Compound: COc1ccc(CCN2C(=O)/C(=C/c3csc(C#N)n3)SC2=S)cc1
- GI50 (HOP-62 NSCLC): 17.5 µM
- TGI (HOP-62 NSCLC): 32 µM
- GI50 (U251 CNS): 13.1 µM
- TGI (U251 CNS): 26.4 µM
- GI50 (ACHN renal): 14.1 µM
- TGI (ACHN renal): 27.1 µM
- GI50 (UACC-257 melanoma): 11.7 µM
- TGI (UACC-257 melanoma): 27.1 µM
- GI50 (OVCAR-8 ovarian): 15.2 µM
- TGI (OVCAR-8 ovarian): 29.7 µM
- GI50 (MALME-3M melanoma): 14.3 µM
- TGI (MALME-3M melanoma): 28.9 µM
- GI50 (SK-MEL-2 melanoma): 12.2 µM
- TGI (SK-MEL-2 melanoma): 24.9 µM
- GI50 (NCI-H226 lung): 14.5 µM
- TGI (NCI-H226 lung): 28.8 µM
- GI50 (EKVX NSCLC): 18.5 µM
- TGI (EKVX NSCLC): 34.4 µM
- GI50 (HT29 colon): 14.1 µM
- TGI (HT29 colon): 27.1 µM
- GI50 (UO-31 renal): 10.8 µM
- TGI (UO-31 renal): 22.6 µM
- GI50 (HCC-2998 colon): 15.9 µM
- TGI (HCC-2998 colon): 29.4 µM
- GI50 (OVCAR-5 ovarian): 15.6 µM
- TGI (OVCAR-5 ovarian): 29 µM
- GI50 (M14 melanoma): 11.5 µM
- TGI (M14 melanoma): 25.1 µM
- GI50 (PC-3 prostate): 12 µM
- TGI (PC-3 prostate): 26.7 µM
- GI50 (MCF7 breast): 4.31 µM
- TGI (MCF7 breast): 15.9 µM
- GI50 (NCI-H460 lung): 18.4 µM
- TGI (NCI-H460 lung): 39 µM
- GI50 (MDA-MB-435): 12.5 µM
- TGI (MDA-MB-435): 28.3 µM
- GI50 (SW-620 colon): 8.45 µM
- TGI (SW-620 colon): 21.7 µM
- GI50 (T-47D breast): 5.7 µM
- TGI (T-47D breast): 30.2 µM
- GI50 (NCI-H522 lung): 3.03 µM
- TGI (NCI-H522 lung): 14 µM
- GI50 (DU-145 prostate): 4.6 µM
- TGI (DU-145 prostate): 15.6 µM
- GI50 (TK-10 renal): 10.7 µM
- TGI (TK-10 renal): 27.7 µM
- GI50 (HCT-116 colon): 7.69 µM
- TGI (HCT-116 colon): 20.7 µM
- GI50 (UACC-62 melanoma): 10.9 µM
- TGI (UACC-62 melanoma): 22.9 µM
- GI50 (SN12C renal): 12.3 µM
- TGI (SN12C renal): 24.8 µM
- GI50 (RPMI-8226 leukemia): 4.29 µM
- TGI (RPMI-8226 leukemia): 30.6 µM
- GI50 (NCI-H23 lung): 14.6 µM
- TGI (NCI-H23 lung): 27.7 µM
- GI50 (CAKI-1 renal): 16.9 µM
- TGI (CAKI-1 renal): 31.4 µM
- GI50 (MDA-MB-468 breast): 3.03 µM
- TGI (MDA-MB-468 breast): 13.2 µM
- GI50 (IGROV1 ovarian): 17.9 µM
- TGI (IGROV1 ovarian): 34.6 µM
- GI50 (MOLT-4 leukemia): 3.52 µM
- TGI (MOLT-4 leukemia): 53.1 µM
- GI50 (KM12 colon): 3.82 µM
- TGI (KM12 colon): 14.1 µM
- GI50 (SF-539 CNS): 10.5 µM
- TGI (SF-539 CNS): 22.3 µM
- GI50 (HL-60(TB) leukemia): 14.5 µM
- TGI (HL-60(TB) leukemia): 46.8 µM
- GI50 (SK-MEL-28 melanoma): 12.1 µM
- TGI (SK-MEL-28 melanoma): 24.5 µM
- GI50 (RXF 393 renal): 10.4 µM
- TGI (RXF 393 renal): 22.1 µM
- GI50 (SF-295 CNS): 17.3 µM
- TGI (SF-295 CNS): 33.9 µM
- GI50 (SR leukemia): 3.59 µM
- TGI (SR leukemia): 32.4 µM
- GI50 (BT-549 breast): 8.93 µM
- TGI (BT-549 breast): 21.7 µM
- GI50 (HOP-92 NSCLC): 2.13 µM
- TGI (HOP-92 NSCLC): 15.1 µM
- GI50 (786-0 renal): 10.2 µM
- TGI (786-0 renal): 22.2 µM
- GI50 (K-562 leukemia): 3.52 µM
- TGI (K-562 leukemia): > 100 µM
- GI50 (SF-268 CNS): 15 µM
- TGI (SF-268 CNS): 32.7 µM
- GI50 (MDA-MB-231 breast): 11.6 µM
- TGI (MDA-MB-231 breast): 24.1 µM
- GI50 (SNB-19 CNS): 14.9 µM
- TGI (SNB-19 CNS): 28.1 µM
- GI50 (SNB-75 CNS): 16.1 µM
- TGI (SNB-75 CNS): 31 µM
- GI50 (OVCAR-3 ovarian): 10.1 µM
- TGI (OVCAR-3 ovarian): 21.7 µM
- GI50 (OVCAR-4 ovarian): 15.5 µM
- TGI (OVCAR-4 ovarian): 47 µM
- GI50 (A498 renal): 16.7 µM
- TGI (A498 renal): 30.3 µM
- GI50 (CCRF-CEM leukemia): 3.13 µM
- TGI (CCRF-CEM leukemia): 9.66 µM
- GI50 (COLO 205 colon): 16 µM
- TGI (COLO 205 colon): 29.5 µM
- GI50 (NCI/ADR-RES ovarian): 15.9 µM
- TGI (NCI/ADR-RES ovarian): 32.3 µM
- GI50 (LOX IMVI melanoma): 3.04 µM
- TGI (LOX IMVI melanoma): 10.5 µM
- GI50 (SK-OV-3 ovarian): 18.8 µM
- TGI (SK-OV-3 ovarian): 37.4 µM
- GI50 (SK-MEL-5 melanoma): 15.1 µM
- TGI (SK-MEL-5 melanoma): 28.3 µM
- GI50 (A549 NSCLC): 21.3 µM
- TGI (A549 NSCLC): 56.1 µM
- GI50 (HS 578T breast): 21.8 µM
- TGI (HS 578T breast): 64.9 µM
- GI50 (HCT-15 colon): 6.19 µM
- TGI (HCT-15 colon): 19.7 µM
